Assay results reported in US9321773B2, “Compounds” (Respivert Ltd, priority 2009, dated 2016).
Like-named read-outs stand apart in the source and are kept apart here.

What was measured:
recombinant PI3 kinase α = recombinant PI3 kinase α (Homo sapiens (Human), UniProt P42336); experiment: Enzyme Inhibition Assay (HTRF PI3K enzyme assay, TR-FRET); format: biochemical
How it was run: (§1)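 TR-FRET readout after 15-18 hr at RT with biotinylated PIP3, GST-tagged GRP1 PH domain and europium/APC fluorophores; product PIP3 displaces the tracer and lowers the signal. Beforehand, compound and PIP2 were reacted for 2 hr at RT with human recombinant PI3Kα, δ or γ.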

recombinant PI3 kinase γ = recombinant PI3 kinase γ (Homo sapiens (Human), UniProt P48736); experiment: as above; format: biochemical
How it was run: as §1

recombinant PI3 kinase δ = recombinant PI3 kinase δ (Homo sapiens (Human), UniProt O00329); experiment: as above; format: biochemical
How it was run: as §1

[1] = tested on: H2O2 induced pAkt in D-U937 cells; experiment: PI3Kδ Cell Based Assay (H2O2 induced pAkt); details: Homo sapiens
How it was run: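 Read-out is the pAkt/total Akt signal ratio, measured with anti-pAkt and anti-pan-Akt antibodies after H2O2 stimulation. Cells were U937 monocytes given PMA (100 ng/mL) for 48 to 72 hr. IC50 values fitted from compound serial dilutions.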

[2] = tested on: PMA-differentiated U937 cells; experiment: MTT Assay (cell viability); format: cell-based, Human; details: percentage loss of cell viability; for Cell Viability MTT Assay in D-U937 cells at 4 hr: 4 hr in 5% FCS; for Cell Viability MTT Assay in D-U937 cells at 24 hr: 24 hr in 10% FCS
How it was run: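 Differentiated U937 cells treated with compound for 4 hr (5% FCS) or 24 hr (10% FCS), then given MTT for 1 hr; formazan dissolved in DMSO and absorbance read at 550 nm. Viability loss expressed as % versus 0.5% DMSO vehicle.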

[3] = activity range, read-out: PI3 Kinase Inhibition IC50 values at stated Isozyme α
[4] = activity range, read-out: PI3 Kinase Inhibition IC50 values at stated Isozyme γ
[5] = activity range, read-out: PI3 Kinase Inhibition IC50 values at stated Isozyme δ
[6] = dU937, activity range, D-U937 cells, read-out: Cellular Activity IC50 values (H2O2 induced pAkt D-U937 Cells)

Chain of recombinant PI3 kinase δ (O00329 whole entry): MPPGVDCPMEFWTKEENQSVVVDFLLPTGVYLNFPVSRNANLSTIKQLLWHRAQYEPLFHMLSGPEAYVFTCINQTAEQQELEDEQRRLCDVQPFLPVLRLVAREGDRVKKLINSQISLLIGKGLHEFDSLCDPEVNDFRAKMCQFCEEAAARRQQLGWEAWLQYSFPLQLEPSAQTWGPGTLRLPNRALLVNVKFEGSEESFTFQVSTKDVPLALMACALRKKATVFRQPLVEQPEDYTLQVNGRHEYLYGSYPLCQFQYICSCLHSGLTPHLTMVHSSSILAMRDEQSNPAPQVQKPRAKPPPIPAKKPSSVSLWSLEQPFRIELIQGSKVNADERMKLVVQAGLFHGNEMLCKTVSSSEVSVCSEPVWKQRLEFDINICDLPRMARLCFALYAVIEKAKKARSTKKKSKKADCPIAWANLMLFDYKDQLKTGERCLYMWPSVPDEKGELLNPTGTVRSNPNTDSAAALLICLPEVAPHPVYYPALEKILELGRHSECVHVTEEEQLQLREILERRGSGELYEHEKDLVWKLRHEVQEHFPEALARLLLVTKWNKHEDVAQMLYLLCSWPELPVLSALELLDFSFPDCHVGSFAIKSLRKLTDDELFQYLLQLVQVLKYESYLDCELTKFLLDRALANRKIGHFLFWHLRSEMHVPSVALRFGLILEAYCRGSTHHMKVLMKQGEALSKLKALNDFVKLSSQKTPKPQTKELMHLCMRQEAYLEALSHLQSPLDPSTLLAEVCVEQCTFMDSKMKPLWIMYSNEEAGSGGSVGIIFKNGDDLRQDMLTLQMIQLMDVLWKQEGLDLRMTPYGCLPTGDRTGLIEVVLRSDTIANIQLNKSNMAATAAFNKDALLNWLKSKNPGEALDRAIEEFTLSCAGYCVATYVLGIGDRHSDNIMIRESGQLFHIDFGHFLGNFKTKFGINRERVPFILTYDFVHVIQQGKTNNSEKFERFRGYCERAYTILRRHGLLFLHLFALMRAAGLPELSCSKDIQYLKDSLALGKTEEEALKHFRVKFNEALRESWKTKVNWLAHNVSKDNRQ
Chain of recombinant PI3 kinase δ (P27986 whole entry partner): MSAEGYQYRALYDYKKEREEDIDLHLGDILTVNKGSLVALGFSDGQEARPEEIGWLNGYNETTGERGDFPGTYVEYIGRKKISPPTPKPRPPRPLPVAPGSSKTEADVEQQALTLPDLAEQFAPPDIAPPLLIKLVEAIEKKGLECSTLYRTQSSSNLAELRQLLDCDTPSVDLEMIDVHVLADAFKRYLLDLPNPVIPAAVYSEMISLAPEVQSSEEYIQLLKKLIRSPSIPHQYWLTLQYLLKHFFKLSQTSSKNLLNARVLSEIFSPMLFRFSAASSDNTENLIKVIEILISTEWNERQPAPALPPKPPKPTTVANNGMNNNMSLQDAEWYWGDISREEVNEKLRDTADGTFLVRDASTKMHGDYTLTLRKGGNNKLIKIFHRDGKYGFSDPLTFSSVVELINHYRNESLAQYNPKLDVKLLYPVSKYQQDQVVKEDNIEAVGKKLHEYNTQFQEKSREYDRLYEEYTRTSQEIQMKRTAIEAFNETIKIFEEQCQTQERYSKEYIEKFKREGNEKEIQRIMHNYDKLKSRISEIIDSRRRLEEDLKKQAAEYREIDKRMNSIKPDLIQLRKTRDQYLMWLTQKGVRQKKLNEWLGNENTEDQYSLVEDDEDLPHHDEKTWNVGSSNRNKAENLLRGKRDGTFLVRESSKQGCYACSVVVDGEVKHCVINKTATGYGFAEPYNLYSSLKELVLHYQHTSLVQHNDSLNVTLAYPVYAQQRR
Chain of recombinant PI3 kinase γ (P48736 whole entry): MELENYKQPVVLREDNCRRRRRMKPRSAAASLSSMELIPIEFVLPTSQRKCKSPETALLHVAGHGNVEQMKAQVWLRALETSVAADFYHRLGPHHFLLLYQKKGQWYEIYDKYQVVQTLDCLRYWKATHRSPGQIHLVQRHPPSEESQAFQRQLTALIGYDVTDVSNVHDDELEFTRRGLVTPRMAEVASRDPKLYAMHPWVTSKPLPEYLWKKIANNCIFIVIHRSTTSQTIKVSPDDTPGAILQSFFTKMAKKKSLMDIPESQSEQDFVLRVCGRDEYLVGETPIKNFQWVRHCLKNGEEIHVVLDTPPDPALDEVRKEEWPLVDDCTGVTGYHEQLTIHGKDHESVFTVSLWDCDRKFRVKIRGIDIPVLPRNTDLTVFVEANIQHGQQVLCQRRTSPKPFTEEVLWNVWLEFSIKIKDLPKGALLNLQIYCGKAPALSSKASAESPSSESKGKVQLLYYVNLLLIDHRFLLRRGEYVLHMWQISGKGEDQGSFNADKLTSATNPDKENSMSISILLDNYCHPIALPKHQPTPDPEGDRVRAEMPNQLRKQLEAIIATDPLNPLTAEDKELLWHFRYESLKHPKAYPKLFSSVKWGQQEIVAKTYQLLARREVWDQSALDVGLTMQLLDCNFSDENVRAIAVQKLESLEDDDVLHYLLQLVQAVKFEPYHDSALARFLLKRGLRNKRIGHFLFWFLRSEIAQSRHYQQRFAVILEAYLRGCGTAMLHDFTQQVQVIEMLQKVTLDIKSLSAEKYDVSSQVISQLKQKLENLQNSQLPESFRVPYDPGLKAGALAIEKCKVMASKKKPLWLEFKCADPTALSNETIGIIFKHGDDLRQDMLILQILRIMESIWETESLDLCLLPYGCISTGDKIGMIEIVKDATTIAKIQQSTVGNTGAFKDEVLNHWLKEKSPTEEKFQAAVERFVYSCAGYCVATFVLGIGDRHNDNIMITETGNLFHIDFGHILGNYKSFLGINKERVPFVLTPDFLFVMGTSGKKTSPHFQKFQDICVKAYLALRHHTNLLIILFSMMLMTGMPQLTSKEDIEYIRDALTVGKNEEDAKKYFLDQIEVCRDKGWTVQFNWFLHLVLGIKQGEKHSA
Chain of recombinant PI3 kinase α (P42336 whole entry, the tested form may be a part): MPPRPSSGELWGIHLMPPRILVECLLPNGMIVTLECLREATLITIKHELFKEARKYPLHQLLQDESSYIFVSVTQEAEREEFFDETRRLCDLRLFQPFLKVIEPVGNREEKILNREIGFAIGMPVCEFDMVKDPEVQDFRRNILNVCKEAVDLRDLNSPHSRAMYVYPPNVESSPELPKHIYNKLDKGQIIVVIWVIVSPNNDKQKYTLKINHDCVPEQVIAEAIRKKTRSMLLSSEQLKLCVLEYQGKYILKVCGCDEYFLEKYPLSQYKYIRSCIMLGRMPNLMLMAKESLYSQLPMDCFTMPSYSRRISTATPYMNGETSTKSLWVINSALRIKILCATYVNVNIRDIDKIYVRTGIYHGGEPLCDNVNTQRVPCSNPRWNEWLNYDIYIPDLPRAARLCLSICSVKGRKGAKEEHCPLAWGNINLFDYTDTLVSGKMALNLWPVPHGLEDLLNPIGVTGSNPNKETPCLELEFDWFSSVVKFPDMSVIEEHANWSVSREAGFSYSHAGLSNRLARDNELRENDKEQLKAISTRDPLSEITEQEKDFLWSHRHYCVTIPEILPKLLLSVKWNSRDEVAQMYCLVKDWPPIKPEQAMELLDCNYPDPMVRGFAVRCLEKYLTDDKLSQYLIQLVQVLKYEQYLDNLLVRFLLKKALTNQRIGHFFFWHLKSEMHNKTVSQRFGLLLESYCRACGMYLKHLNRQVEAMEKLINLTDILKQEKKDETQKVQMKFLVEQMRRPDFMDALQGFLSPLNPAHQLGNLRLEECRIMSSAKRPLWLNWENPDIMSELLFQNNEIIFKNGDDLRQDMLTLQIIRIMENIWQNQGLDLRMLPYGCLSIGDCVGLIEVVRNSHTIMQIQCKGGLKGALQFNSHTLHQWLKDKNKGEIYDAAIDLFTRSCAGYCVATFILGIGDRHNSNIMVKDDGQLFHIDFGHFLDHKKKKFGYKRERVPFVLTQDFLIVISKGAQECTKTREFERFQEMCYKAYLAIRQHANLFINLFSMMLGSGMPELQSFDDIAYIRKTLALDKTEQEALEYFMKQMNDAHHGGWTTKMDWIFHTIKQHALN
Chain of recombinant PI3 kinase α (P27986 whole entry partner, the tested form may be a part): as the sequence (P27986 whole entry partner) above

Row | SMILES | IC50 (recombinant PI3 kinase α; [3]) [nM] | IC50 (recombinant PI3 kinase γ; [4]) [nM] | IC50 (recombinant PI3 kinase δ; [5]) [nM] | IC50 [1, 6] [nM] | Cell Viability MTT Assay in D-U937 cells at 4 hr [2] | Cell Viability MTT Assay in D-U937 cells at 24 hr [2] | IC50 (recombinant PI3 kinase α; read-out: PI3 Kinase Inhibition IC50 values at stated Isozyme (nM) α) [nM] | IC50 (recombinant PI3 kinase γ; read-out: PI3 Kinase Inhibition IC50 values at stated Isozyme (nM) γ) [nM] | IC50 (recombinant PI3 kinase δ; read-out: PI3 Kinase Inhibition IC50 values at stated Isozyme (nM) δ) [nM] | IC50 ([1]; dU937, read-out: Cellular Activity IC50 values (H2O2 induced pAkt (nM) D-U937 Cells)) [nM] | IC50 ([1]; dU937, read-out: Cellular Activity IC50 values (H2O2 induced pAkt D-U937 Cells)) [nM]
1 | COCCN(CCOC)C(=O)CCCC#Cc1cccc2nc(Cn3nc(-c4ccc(O)cc4)c4c(N)ncnc43)n(Cc3ccccc3Cl)c(=O)c12 [Example 82, 6-(2-((4-Amino-3-(4-hydroxyphenyl)-1H-pyrazolo[3,4-d]pyrimidin-1-yl)methyl)-3-(2-chlorobenzyl)-4-oxo-3,4-dihydroquinazolin-5-yl)-N,N-bis(2-methoxyethyl)hex-5-ynamide] | 50 to 1000 | < 50 | < 50 | < 10 | − (− <30%) | − (− <30%) |  |  |  |  | 
2 | C#Cc1cccc2nc(Cn3nc(-c4ccc(O)cc4)c4c(N)ncnc43)n(Cc3ccc(Cl)c(Cl)c3)c(=O)c12 [Example 43, 2-((4-Amino-3-(4-hydroxyphenyl)-1H-pyrazolo[3,4-d]pyrimidin-1-yl)methyl)-3-(3,4-dichlorobenzyl)-5-ethynylquinazolin-4(3H)-one] | 50 to 1000 | 50 to 1000 | < 50 | < 10 | − (− <30%) | − (− <30%) |  |  |  |  | 
3 | Nc1ncnc2c1c(-c1ccc(O)cc1)nn2Cc1nc2cccc(C#CCCCC(=O)N3CCOCC3)c2c(=O)n1Cc1ccccc1F [Example 53, 2-((4-Amino-3-(4-hydroxyphenyl)-1H-pyrazolo[3,4-d]pyrimidin-1-yl)methyl)-3-(2-fluorobenzyl)-5-(6-morpholino-6-oxohex-1-yn-1-yl)quinazolin-4(3H)-one] | < 50 | < 50 | < 50 | < 10 | − (− <30%) | − (− <30%) |  |  |  |  | 
4 | Nc1ncnc2c1c(-c1ccc(O)cc1)nn2Cc1nc2cccc(C#CCCCO)c2c(=O)n1Cc1ccccc1Cl [Example 41, 2-((4-Amino-3-(4-hydroxyphenyl)-1H-pyrazolo[3,4-d]pyrimidin-1-yl)methyl)-3-(2-chlorobenzyl)-5-(5-hydroxypent-1-ynyl)quinazolin-4(3H)-one] | 50 to 1000 | 50 to 1000 | < 50 | < 10 | − (− <30%) | − (− <30%) |  |  |  |  | 
5 | COCC#Cc1cccc2nc(Cn3nc(-c4cccc(O)c4)c4c(N)ncnc43)n(Cc3ccc(Cl)cc3)c(=O)c12 [Example 26, 2-((4-Amino-3-(3-hydroxyphenyl)-1H-pyrazolo[3,4-d]pyrimidin-1-yl)methyl)-3-(4-chlorobenzyl)-5-(3-methoxyprop-1-ynyl)quinazolin-4(3H)-one] | 50 to 1000 | 50 to 1000 | < 50 | < 10 | − (− <30%) | − (− <30%) |  |  |  |  | 
6 | Nc1ncnc2c1c(-c1ccc(O)cc1)nn2Cc1nc2cccc(C#CCCCC(=O)NCCN3CCOCC3)c2c(=O)n1Cc1ccccc1Cl [Example 76, 6-(2-((4-Amino-3-(4-hydroxyphenyl)-1H-pyrazolo[3,4-d]pyrimidin-1-yl)methyl)-3-(2-chlorobenzyl)-4-oxo-3,4-dihydroquinazolin-5-yl)-N-(2-morpholinoethyl)hex-5-ynamide] | 50 to 1000 | < 50 | < 50 | < 10 | − (− <30%) | − (− <30%) |  |  |  |  | 
7 | C#Cc1cccc2nc(Cn3nc(-c4ccc(O)cc4)c4c(N)ncnc43)n(Cc3ccc(OC)cc3F)c(=O)c12 [Example 48, 2-((4-Amino-3-(4-hydroxyphenyl)-1H-pyrazolo[3,4-d]pyrimidin-1-yl)methyl)-5-ethynyl-3-(2-fluoro-4-methoxybenzyl)quinazolin-4(3H)-one] | 50 to 1000 | 50 to 1000 | < 50 | < 10 | − (− <30%) | − (− <30%) |  |  |  |  | 
8 | Nc1ncnc2c1c(-c1cccc(O)c1)nn2Cc1nc2cccc(C#CCCCC(=O)N3CCOCC3)c2c(=O)n1Cc1ccccc1Cl [Example 3, 2-((4-Amino-3-(3-hydroxyphenyl)-1H-pyrazolo[3,4-d]pyrimidin-1-yl)methyl)-3-(2-chlorobenzyl)-5-(6-morpholino-6-oxohex-1-yn-1-yl)quinazolin-4(3H)-one] | < 50 | < 50 | < 50 | < 10 | − (− <30%) | − (− <30%) |  |  |  |  | 
9 | C#Cc1cccc2nc(Cn3nc(-c4ccc(O)c(F)c4)c4c(N)ncnc43)n(Cc3ccccc3Cl)c(=O)c12 [Example 36, 2-((4-Amino-3-(3-fluoro-4-hydroxyphenyl)-1H-pyrazolo[3,4-d]pyrimidin-1-yl)methyl)-3-(2-chlorobenzyl)-5-ethynylquinazolin-4(3H)-one] | 50 to 1000 | > 1000 | < 50 | < 10 | − (− <30%) | − (− <30%) |  |  |  |  | 
10 | COCC#Cc1cccc2nc(Cn3nc(-c4cccc(O)c4)c4c(N)ncnc43)n(Cc3cccc(C(F)(F)F)c3)c(=O)c12 [Example 37, 2-((4-Amino-3-(3-hydroxyphenyl)-1H-pyrazolo[3,4-d]pyrimidin-1-yl)methyl)-5-(3-methoxyprop-1-ynyl)-3-(3-(trifluoromethyl)benzyl)quinazolin-4(3H)-one] | 50 to 1000 | > 1000 | < 50 | < 10 | − (− <30%) | − (− <30%) | 474 | 1610 | 12 | 0.33 | 
11 | Nc1ncnc2c1c(-c1ccc(O)cc1)nn2Cc1nc2cccc(C#CCCCC(=O)N3CCOCC3)c2c(=O)n1Cc1cc2ccccc2s1 [Example 63, 2-((4-Amino-3-(4-hydroxyphenyl)-1H-pyrazolo[3,4-d]pyrimidin-1-yl)methyl)-3-(benzo[b]thiophen-2-ylmethyl)-5-(6-morpholino-6-oxohex-1-yn-1-yl)quinazolin-4(3H)-one] | 50 to 1000 | < 50 | < 50 | < 10 | − (− <30%) | − (− <30%) |  |  |  |  | 
12 | Nc1ncnc2c1c(-c1ccc(O)cc1)nn2Cc1nc2cccc(C#CCCCC(=O)N3CCCCC3)c2c(=O)n1Cc1ccccc1Cl [Example 58, 2-((4-Amino-3-(4-hydroxyphenyl)-1H-pyrazolo[3,4-d]pyrimidin-1-yl)methyl)-3-(2-chlorobenzyl)-5-(6-oxo 6-(piperidin-1-yl)hex-1-yn-1-yl)quinazolin-4(3H)-one] | 50 to 1000 | < 50 | < 50 | < 10 | − (− <30%) | − (− <30%) |  |  |  |  | 
13 | COc1cccc(Cn2c(Cn3nc(-c4ccc(O)cc4)c4c(N)ncnc43)nc3cccc(C#CCCCC(=O)N4CCOCC4)c3c2=O)c1F [Example 64, 2-((4-Amino-3-(4-hydroxyphenyl)-1H-pyrazolo[3,4-d]pyrimidin-1-yl)methyl)-3-(2-fluoro-3-methoxybenzyl)-5-(6-morpholino-6-oxohex-1-yn-1-yl)quinazolin-4(3H)-one] | 50 to 1000 | < 50 | < 50 | < 10 | − (− <30%) | − (− <30%) |  |  |  |  | 
14 | Nc1ncnc2c1c(-c1cccc(O)c1)nn2Cc1nc2cccc(C#CCOCCN3CCOCC3)c2c(=O)n1Cc1ccccc1Cl [Example 8, 2-((4-Amino-3-(3-hydroxyphenyl)-1H-pyrazolo[3,4-d]pyrimidin-1-yl)methyl)-3-(2-chlorobenzyl)-5-(3-(2-morpholinoethoxy)prop-1-ynyl)quinazolin-4(3H)-one] | 50 to 1000 | 50 to 1000 | < 50 |  | − (− <30%) | − (− <30%) |  |  |  |  | < 10
15 | CN(C)C1CCN(C(=O)CCCC#Cc2cccc3nc(Cn4nc(-c5ccc(O)cc5)c5c(N)ncnc54)n(Cc4ccccc4Cl)c(=O)c23)C1 (stereo not shown) [Example 91, 2-((4-Amino-3-(4-hydroxyphenyl)-1H-pyrazolo[3,4-d]pyrimidin-1-yl)methyl)-3-(2-chlorobenzyl)-5-(6-(3-(dimethylamino)pyrrolidin-1-yl)-6-oxohex-1-ynyl) quinazolin-4(3H)-one] | 50 to 1000 | < 50 | < 50 | < 10 | − (− <30%) | − (− <30%) |  |  |  |  | 
